From US7348322B2, “Glucocorticoid receptor modulators as antiinflammatory agents” (Roche Palo Alto LLC, priority 2005, dated 2008) come the findings set out here.

The term Ki denotes the equilibrium dissociation constant of an inhibitor or competing ligand from its target.

This assay deals with T1, Human recombinant purified glucocorticoid receptor (Homo sapiens, UniProt P04150).
T1 sequence (P04150 1-777): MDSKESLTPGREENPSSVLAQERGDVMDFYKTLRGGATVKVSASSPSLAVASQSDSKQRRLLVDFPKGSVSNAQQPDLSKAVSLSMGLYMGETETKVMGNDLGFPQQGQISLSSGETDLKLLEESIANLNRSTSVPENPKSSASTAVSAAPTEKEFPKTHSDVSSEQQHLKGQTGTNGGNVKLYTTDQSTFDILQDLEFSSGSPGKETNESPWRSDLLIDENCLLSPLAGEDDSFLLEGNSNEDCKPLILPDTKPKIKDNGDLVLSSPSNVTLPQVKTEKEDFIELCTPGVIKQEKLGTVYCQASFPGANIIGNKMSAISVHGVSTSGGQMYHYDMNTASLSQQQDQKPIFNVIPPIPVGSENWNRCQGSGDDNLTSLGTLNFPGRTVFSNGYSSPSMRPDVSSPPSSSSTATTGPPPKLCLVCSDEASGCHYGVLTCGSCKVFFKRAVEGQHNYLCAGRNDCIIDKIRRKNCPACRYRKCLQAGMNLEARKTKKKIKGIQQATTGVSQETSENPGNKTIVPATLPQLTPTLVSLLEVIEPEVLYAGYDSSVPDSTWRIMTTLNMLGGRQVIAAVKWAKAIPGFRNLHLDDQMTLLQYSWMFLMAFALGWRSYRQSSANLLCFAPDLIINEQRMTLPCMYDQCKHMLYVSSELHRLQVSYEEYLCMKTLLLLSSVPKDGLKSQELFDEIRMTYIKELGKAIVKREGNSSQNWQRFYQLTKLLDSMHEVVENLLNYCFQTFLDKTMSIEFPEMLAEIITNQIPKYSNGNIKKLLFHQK
Nature of the assay: Glucocorticoid receptor competitive binding assay (3H-dexamethasone). The conditions noted are these: competition with 2 nM 3H-Dexamethasone, 1 nM GR, 4° C. overnight; read-out: Binding Affinity Ki. The method, then:
The affinity of glucocorticoid receptor antagonists for the glucocorticoid receptor was determined in competitive binding assays by the ability of the antagonist to compete with tritiated dexamethasone.
All assay steps were performed on ice in 96-well plates. Binding buffer contained 10 mM potassium phosphate pH 7.4, 20 mM Na2Mo4, 100 μM EDTA, 2% DMSO, and 5 mM DTT. Human recombinant purified glucocorticoid receptor was used at 1 nM. Compounds tested had up to 2% DMSO final concentration. Non-specific binding condition was 1 μM dexamethasone. The radioligand used for the competition assay was 2 nM ^3H-Dexamethasone (83 Ci/mmol stock solution). Buffer, compounds or vehicles, GR, and radioligand were incubated at 4° C. overnight. Unifilter GF/B 96-well filter plates were treated with 0.5% PEI after incubation. Samples were transferred to filter plates by a cell harvester. Filter plates were washed five times with 50 mM Tris pH 7.5 and 5 mM EDTA wash buffer. Samples were dried at 65° C. for about 1 hr. Scintillation fluid was added to filter plates at 50 μL/ well and ^3H cpm were measured on the TopCount scintillation counter.

In the case of `ON=C(CNc1ccc(-c2cnco2)cc1)CC1(c2ccccc2C(F)(F)F)CCC1` (racemic) [Example 4, 1-(4-Oxazol-5-yl-phenylamino)-3-[1-(2-trifluoromethyl-phenyl)-cyclobutyl]-propan-2-one oxime], the inhibitory constant (Ki) was 851 nM.

Turning to `Cc1noc(=O)c2ccc(NCC(=O)CC3(c4ccccc4C(F)(F)F)CCC3)cc12` [Example 1, 4-Methyl-6-{2-oxo-3-[1-(2-trifluoromethyl-phenyl)-cyclobutyl]-propylamino}-benzo[d][1,2]oxazin-1-one], the inhibitory constant (Ki) is 405 nM.

For `Cc1noc(=O)c2ccc(NC/C(CC3(c4ccccc4C(F)(F)F)CCC3)=N\O)cc12` [Example 2, 1-(4-Methyl-1-oxo-1H-benzo[d][1,2]oxazin-6-ylamino)-3-[1-(2-trifluoromethyl-phenyl)-cyclobutyl]propan-2-one oxime], the Ki was 89 nM.

With `O/N=C(\CNc1cccc(-c2cnco2)c1)CC1(c2ccccc2C(F)(F)F)CCC1` [Example 3, 1-(3-Oxazol-5-yl-phenylamino)-3-[1-(2-trifluoromethyl-phenyl)-cyclobutyl]-propan-2-one oxime], the inhibition constant Ki turned out to be 2100 nM.

Regarding `O=C(CC1(c2ccccc2C(F)(F)F)CCC1)C(=O)Nc1ccc(-c2cnco2)cc1` [Example 5, N-(4-Oxazol-5-yl-phenyl)-2-oxo-3-[1-(2-trifluoromethyl-phenyl)-cyclobutyl]-propionamide], the Ki is 723 nM.

With `O=C(CC1(c2ccccc2C(F)(F)F)CCC1)C(=O)Nc1cccc(-c2ccno2)c1` [Example 6, N-(3-Isoxazol-5-yl-phenyl)-2-oxo-3-[1-(2-trifluoromethyl-phenyl)-cyclobutyl]-propionamide], the Ki stood at 2400 nM.
